Results taken from patent publication US20230278972A1, “SUBSTITUTED HALOALKYL SULFONANILIDE HERBICIDES” (FMC Corporation, priority 2020, published 2023).
Where two headings read alike, the source gives them in different places.

How the values were obtained:
[1] = test system: kochia (Bassia scoparia); assay: Test A preemergence, kochia; assay type: in vivo; conditions: Bassia scoparia, pre-emergence, 240 h, Preemergence; for pest or weed control at 125 g/ha: 125 g ai/ha; for pest or weed control at 500 g/ha: 500 g ai/ha
How it was run: (§1)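 After sowing into a sand-amended loam, pots for the preemergence test were treated by spraying directly onto soil. In parallel, seedlings at the one- to two-leaf stage and 2 to 10 cm tall were treated postemergence with the identical surfactant-containing formulation.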

[2] = test system: ducksalad (Heteranthera limosa); assay: Test B flooded paddy test, ducksalad; conditions: 336 h, read-out: Plant response rating, Ducksalad
[3] = test system: rice (Oryza sativa); assay: Test B flooded paddy test, rice; conditions: 336 h, read-out: Plant response rating, Rice
[4] = test system: ragweed (common ragweed, Ambrosia artemisiifolia); assay: Test A postemergence, ragweed; assay type: in vivo; conditions: Ambrosia artemisiifolia, post-emergence, 240 h, Postemergence, 0 to 100 scale (0 no effect, 100 complete control); for pest or weed control at 125 g/ha: 125 g ai/ha, read-out: Plant response rating, Ragweed; for pest or weed control at 500 g/ha: 500 g ai/ha, visual injury vs untreated controls after approx. 10 days, read-out: Ragweed plant response rating
How it was run: as §1

[5] = test system: ragweed (common ragweed, Ambrosia artemisiifolia); assay: Test A preemergence, ragweed; assay type: in vivo; conditions: Ambrosia artemisiifolia, pre-emergence, 240 h, Preemergence; for pest or weed control at 125 g/ha: 125 g ai/ha; for pest or weed control at 500 g/ha: 500 g ai/ha
How it was run: as §1

[6] = test system: corn (Zea mays); assay: Test A postemergence, corn; assay type: in vivo; conditions: Zea mays, post-emergence, 240 h, Postemergence, 0 to 100 scale (0 no effect, 100 complete control); for Corn plant response rating (crop injury, 0 = no effect, 100 = complete kill) at 125 g/ha: 125 g ai/ha; for plant injury at 500 g/ha: 500 g ai/ha, visual injury vs untreated controls after approx. 10 days, read-out: Corn plant response rating
How it was run: as §1

[7] = 0 to 100 scale (0 no effect, 100 complete control), read-out: Plant response rating, Kochia
[8] = 0 to 100 scale (0 no effect, 100 complete control), read-out: Plant response rating, Ragweed
[9] = visual injury on 0 to 100 scale (0 no effect, 100 complete control), approximately 10 days, read-out: Kochia plant response rating
[10] = visual injury on 0 to 100 scale (0 no effect, 100 complete control), approximately 10 days, read-out: Ragweed plant response rating

Structure (SMILES)	pest or weed control at 125 g/ha ([1]; visual injury, 0 to 100 scale (0 no effect, 100 complete control), approx. 10 days, read-out: Plant response rating, Kochia) [%]	pest or weed control at 500 g/ha [1, 7] [%]	pest or weed control at 250 g/ha [2] [%]	plant injury at 250 g/ha [3] [%]	pest or weed control at 125 g/ha [4] [%]	pest or weed control at 500 g/ha [4] [%]	pest or weed control at 125 g/ha ([5]; visual injury, 0 to 100 scale (0 no effect, 100 complete control), approx. 10 days, read-out: Plant response rating, Ragweed) [%]	pest or weed control at 500 g/ha [5, 8] [%]	Corn plant response rating (crop injury, 0 = no effect, 100 = complete kill) at 125 g/ha [6] [%]	plant injury at 500 g/ha [6] [%]	pest or weed control at 125 g/ha [1, 9] [%]	pest or weed control at 125 g/ha [5, 10] [%]	Corn plant response rating (crop injury, 0 = no effect, 100 = complete kill) at 125 g/ha ([6]; visual injury approx. 10 days) [%]
Cc1c(NS(=O)(=O)C(F)(F)F)cc(C(=O)N2CCOCC2)c(C)c1F [Compound 190, 1,1,1-Trifluoro-N-[3-fluoro-2,4-dimethyl-5-(4-morpholinylcarbonyl)phenyl]methanesulfonamide]	90	100	75	0	80	90	70	90	0	30	–	–	–
Cc1cc(C)c(N(COC(=O)C(C)(C)C)S(=O)(=O)C(F)(F)F)cc1C1=NOC2(CCCCC2)C1 [Compound 159, [[2,4-Dimethyl-5-(1-oxa-2-azaspiro[4.5]dec-2-en-3-yl)phenyl][(trifluoromethyl)sulfonyl]amino]methyl 2,2-dimethylpropanoate]	–	70	35	0	60	90	–	80	0	30	40	80	–
Cc1cc(C)c(N(COC(=O)C(C)(C)C)S(=O)(=O)C(F)(F)F)cc1C1=NOC2(CCCC2)C1 [Compound 140, [[2,4-Dimethyl-5-(1-oxa-2-azaspiro[4.4]non-2-en-3-yl)phenyl][(trifluoromethyl)sulfonyl]amino]methyl 2,2-dimethylpropanoate]	–	70	85	0	0	50	–	60	–	30	0	30	0
